Experimental data reported in patent publication US8889744B2, “Bis-trifluoromethyl honokiol analogs and their use in treating cancers” (priority 2009, dated 2014).
Entries after “also recorded” stand apart in the source; their conditions may differ.

Tests used:
Rac-GTP (active Rac) = experiment: Rac activation pull-down assay (GST-PBD, Western blot); format: cell-based; details: DAOY medulloblastoma cells, FIG. 1
Protocol: […] Cells were lysed with ice-cold lysis buffer, containing 25 mM HEPES pH 7.5, 150 mM NaCl, 1% NP-40, 10 mM MgCl2, 1 mM EDTA, 10% glycerol and protease inhibitors. A sample was kept for total Rac and Ras level analysis.
The remaining lysate was used for the pull-down (Western Blot) assay to isolate the GTP-loaded forms of Rac or Ras using the p21-binding domain of PAK1 fused to glutathione S-transferase (GST-PBD) (Glaven et al., J. Biol. Chem., 274, 2279-2285 (1999)). The GST-PBD fusion protein was prepared as previously described (Abassi, Y. and Vuori, K. EMBO J. 21, 4571-4582 (2002)).
Activated (GTP-bound) Rac was affinity-precipitated with p21-activated kinase-1 protein binding domain peptide, which binds only to Rac-GTP and not Rac-GDP. p21-Activated kinase-1 protein binding domain-agarose (7.5 μg/mg cell lysate) was added, and the reaction mixture was gently rocked at 4° C. for 60 min. The agarose beads were collected by pulsing for 5 s in a microcentrifuge at 14,000×g, and the beads were washed three times with 0.5 ml of lysis buffer.
The agarose beads were resuspended in 40 μl of 1×SDS sample buffer and boiled for 5 min. The supernatant was separated by SDS-PAGE on a 12% gel, and the proteins were transferred to nitrocellulose membrane. […] After incubation with the secondary antibody, Rac and Ras were detected by enhanced chemiluminescence.

SVR angiosarcoma cells = experiment: In vivo tumorigenesis, SVR tumor model in mice
Protocol: SVR (5×10^5) cells were injected into the flank of 6-week-old nude male mice obtained from Charles River Breeding Laboratories. When tumors became visible at approximately 1 week after inoculation, mice received 3 mg/day hexafluoro-honokiol, tacrolomis, or vehicle control suspended in 20% Intralipid (Baxter Healthcare, Deerfield, Ill.) in a total volume of 0.3 ml intraperitoneally. Tumor volume was measured using the formula (width^2×length)×0.52 where width represents the shortest dimension.
The efficacy of the hexafluoro-honokiol compound was then tested in an SVR tumor model in mice, and compared to that of a control and to Tacrolimis. The assay was performed according to the conditions in J Biol Chem. 2003 Sep. 12; 278(37):35501-7, the contents of which are hereby incorporated by reference.
Nude mice injected with 0.5 million SVR angiosarcoma cells were treated with hexafluoro-honokiol (120 mg/kg), Tacrolimis, or control (Cancer Res. 2009 Jun. 1; 69(11):4621-8), with a total of 4 mice in each group. […] The degree of inhibition with hexafluoro-honokiol was more marked than with the same dose of Tacrolimis.

SVR cells [1] = experiment: SVR tumor volume, SVR cells grown in DMEM with 0.5% or 10% FBS; format: in vivo, mice; details: FIG. 3
Protocol: FIG. 3 is a chart showing the effect of hexafluoro-honokiol on SVR tumor volume […] over time (days) in mice, as compared to control, where the SVR cells were grown in 0.5 and 10% serum Dulbecco's minimal essential media (DMEM).
Having shown that hexafluoro-honokiol appears to show better results than tacrolomis, a further experiment was conducted using SVR cells grown in Dulbecco's Modified Eagle Media (DMEM) supplemented with 0.5% or 10% fetal bovine serum (FBS), according to the techniques described in Bai, et al., J. Biol. Chem., Vol. 278, Issue 37, 35501-35507, Sep. 12, 2003.

[2] = tested on: A375 human melanoma cells; experiment: Human melanoma xenograft A375 in nude mice; format: in vivo; details: 120 mg/kg daily intraperitoneal, FIG. 4
Protocol: The compound was evaluated in conjunction with control, and with a different honokiol analogue, the bis-dichloroacetate. A375 human melanoma cells were injected into nude mice (3 mice pre treatment group) and received vehicle (intralipid) or 120 mg/kg honokiol bisdichloroacetate ester (honokiol DCA) or hexafluoro, via daily intraperitoneal administration. The volume of the tumors was calculated by the formula volume=(width squared times length) 0.52, where width is the shortest dimension.

SVR cells [3] = details: in vitro; cited from earlier work
[4] = tested on: primary human endothelial cells; details: cited from earlier work
angiosarcoma = details: nude mice; cited from earlier work

Compound	levels of total Rac (Rac-GTP (active Rac))	levels of Rac-GTP (active Rac) (Rac-GTP (active Rac); with PDGF-BB)	weight loss or other toxicities (SVR angiosarcoma cells; 3 mg/day intraperitoneally in 20% Intralipid)	tumor volume versus control (SVR angiosarcoma cells; 120 mg/kg (3 mg/day) intraperitoneally, FIG. 2)	degree of inhibition of tumor volume compared with Tacrolimis (SVR angiosarcoma cells; same dose, FIG. 2)	tumor volume over time versus control (SVR cells [1])	efficacy of the two compounds compared with each other [2]	tumor volume versus control [2]	anti-proliferative activity against SVR cells (SVR cells [3])	inhibition of primary human endothelial cells compared with fibroblasts [4]	efficacy against angiosarcoma (angiosarcoma)
C=CCc1cc(C(c2ccc(O)c(CC=C)c2)(C(F)(F)F)C(F)(F)F)ccc1O [hexafluoro-honokiol, 2,2-bis(3-allyl-4-hydroxy-phenyl)-1,1,1,3,3,3-hexafluoropropane]	not decreased	significantly decreased; also recorded: disappearance of RAC-GTP	No weight loss or other toxicities were observed	significantly different at all time points	more marked	significantly better than control	comparable efficacy	significantly better than control	–	–	–
C=CCc1ccc(OC(=O)C(Cl)Cl)c(-c2ccc(OC(=O)C(Cl)Cl)c(CC=C)c2)c1 [honokiol bis-dichloroacetate, honokiol bisdichloroacetate ester, reference compound]	–	–	–	–	–	–	comparable efficacy	significantly better than control	–	–	–
honokiol	–	–	–	–	–	–	–	–	potent anti-proliferative activity	preferential inhibition	highly effective
